Measurements reported in patent US8217043B2, “Compounds and methods for their use” (Fibrogen, Inc., priority 2008, dated 2012).
Each block holds one compound with its values, some of them ahead of it.

Target: T1, HIF-PH2 (EGLN1) (Homo sapiens, UniProt Q9GZT9)
T1 construct: made in house; host or cells: insect Hi5 cells
Assay: HIF-PH assay (14CO2 capture, peptide-dependent turnover)
Format: biochemical
Conditions: for inhibition at 67 µM: Concentration 67 μM; for inhibition at 50 µM: Concentration 50 μM; for inhibition at 200 µM: Concentration 200 μM; for inhibition at 125 µM: Concentration 125 μM
From the text: Ketoglutaric acid α-[1-^14C]-sodium salt, alpha-ketoglutaric acid sodium salt, and HPLC purified peptide may be obtained from commercial sources, e.g., Perkin-Elmer (Wellesley Mass.), Sigma-Aldrich, and SynPep Corp. (Dublin Calif.), respectively. Peptides for use in the assay may be fragments of HIFα as described above or as disclosed in International Publication WO 2005/118836, incorporated by reference herein. HIF-PH, e.g., HIF-PH2 (EGLN1), can be expressed in, e.g., insect Hi5 cells, and partially purified, e.g., through a SP ion exchange chromatography column. Enzyme activity is determined by capturing ^14CO2 using an assay described by Kivirikko and Myllyla (1982, Methods Enzymol. 82:245-304). Assay reactions contain 50 mM HEPES (pH 7.4), 100 μM α-ketoglutaric acid sodium salt, 0.30 μCi/mL ketoglutaric acid α-[1-^14C]-sodium salt, 40 μM FeSO4, 1 mM ascorbate, 1541.8 units/mL Catalase, with or without 50 μM peptide substrate and various concentrations of compound of the invention. Reactions are initiated by addition of HIF-PH enzyme.
The peptide-dependent percent turnover is calculated by subtracting percent turnover in the absence of peptide from percent turnover in the presence of substrate peptide. Percent inhibition and IC50 are calculated using peptide-dependent percent turnover at given inhibitor concentrations. Calculation of IC50 values for each inhibitor is conducted using GraFit software (Erithacus Software Ltd., Surrey UK).
Representative compounds of the invention were analyzed using the HIF-PH assay described above. Table 1 presents enzyme inhibition data for exemplary compounds against HIF-PH2, a representative HIF prolyl hydroxylase. By inhibiting HIF prolyl hydroxylase, compounds of the invention stabilize HIFα, which then combines with HIFβ to form an active transcription factor that increases expression of various genes involved in numerous beneficial cellular processes.

T1 sequence (Q9GZT9 whole entry, species assumed): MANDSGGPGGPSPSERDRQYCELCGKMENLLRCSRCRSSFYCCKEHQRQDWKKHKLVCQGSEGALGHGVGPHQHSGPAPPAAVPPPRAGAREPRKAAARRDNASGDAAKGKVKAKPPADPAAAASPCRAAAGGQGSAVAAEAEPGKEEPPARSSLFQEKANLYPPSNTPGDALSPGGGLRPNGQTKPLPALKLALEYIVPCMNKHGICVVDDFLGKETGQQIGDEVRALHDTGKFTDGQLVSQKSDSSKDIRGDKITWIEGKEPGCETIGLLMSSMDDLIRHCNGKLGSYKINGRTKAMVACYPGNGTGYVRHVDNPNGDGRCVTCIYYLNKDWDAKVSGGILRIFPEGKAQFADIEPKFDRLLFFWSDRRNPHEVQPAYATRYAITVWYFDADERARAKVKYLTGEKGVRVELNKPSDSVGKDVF

inhibition at 67 µM: 100%
SMILES: C[C@H](NC(=O)c1c(O)c2cc(Cl)cn2n(Cc2ccc(Cl)cc2)c1=O)C(=O)O [Example 29, 2-(S)-{[6-Chloro-1-(4-chloro-benzyl)-4-hydroxy-2-oxo-1,2-dihydro-pyrrolo[1,2-b]pyridazine-3-carbonyl]-amino}-propionic acid]

inhibition at 67 µM: 95%
SMILES: C[C@H](NC(=O)c1c(O)c2cc(Cl)cn2n(Cc2ccc(F)cc2)c1=O)C(=O)O [Example 27, 2-(S)-{[6-Chloro-1-(4-fluoro-benzyl)-4-hydroxy-2-oxo-1,2-dihydro-pyrrolo[1,2-b]pyridazine-3-carbonyl]-amino}-propionic acid]

inhibition at 67 µM: 99%
SMILES: O=C(O)CNC(=O)c1c(O)c2cc(Cl)cn2n(Cc2cccnc2)c1=O [Example 38, [(6-Chloro-4-hydroxy-2-oxo-1-pyridin-3-ylmethyl-1,2-dihydro-pyrrolo[1,2-b]pyridazine-3-carbonyl)-amino]-acetic acid]

inhibition at 67 µM: 97%
SMILES: COc1ccc(Cn2c(=O)c(C(=O)N[C@@H](C)C(=O)O)c(O)c3cc(Cl)cn32)cc1 [Example 32, 2-(S)-{[6-Chloro-1-(4-methoxy-benzyl)-4-hydroxy-2-oxo-1,2-dihydro-pyrrolo[1,2-b]pyridazine-3-carbonyl]-amino}-propionic acid]

inhibition at 67 µM: 99%
SMILES: O=C(O)CNC(=O)c1c(O)c2cc(-c3ccccc3)cn2n(Cc2ccc(C(F)(F)F)cc2)c1=O [Example 37, {[4-Hydroxy-2-oxo-6-phenyl-1-(4-trifluoromethyl-benzyl)-1,2-dihydro-pyrrolo[1,2-b]pyridazine-3-carbonyl]-amino}-acetic acid]

inhibition at 67 µM: 88%
SMILES: CC[C@H](NC(=O)c1c(O)c2cc(Cl)cn2n(Cc2ccc(OC)cc2)c1=O)C(=O)O [Example 33, 2-(S)-{[6-Chloro-1-(4-methoxy-benzyl)-4-hydroxy-2-oxo-1,2-dihydro-pyrrolo[1,2-b]pyridazine-3-carbonyl]-amino}-butyric acid]

inhibition at 50 µM: 96%
SMILES: O=C(O)CNC(=O)c1c(O)c2cc3ccccc3n2n(Cc2ccc(F)cc2)c1=O [Example 18, {[4-(4-Fluoro-benzyl)-1-hydroxy-3-oxo-3,4-dihydro-4,4a-diaza-fluorene-2-carbonyl]-amino}-acetic acid]

inhibition at 200 µM: 98%
SMILES: CC[C@H](NC(=O)c1c(O)c2cccn2n(Cc2ccc(C(F)(F)F)cc2)c1=O)C(=O)O [Example 25, 2-(S)-{[4-Hydroxy-2-oxo-1-(4-trifluoromethyl-benzyl)-1,2-dihydro-pyrrolo[1,2-b]pyridazine-3-carbonyl]-amino}-butyric acid]

inhibition at 200 µM: 100%
SMILES: O=C(O)CNC(=O)c1c(O)c2cccn2n(Cc2ccc3ccccc3c2)c1=O [Example 9, [(4-Hydroxy-1-naphthalen-2-ylmethyl-2-oxo-1,2-dihydro-pyrrolo[1,2-b]pyridazine-3-carbonyl)-amino]-acetic acid]

inhibition at 50 µM: 97%
SMILES: CCCCCCn1c(=O)c(C(=O)NCC(=O)O)c(O)c2cccn21 [Example 20, [(1-Hexyl-4-hydroxy-2-oxo-1,2-dihydro-pyrrolo[1,2-b]pyridazine-3-carbonyl)-amino]-acetic acid]

inhibition at 50 µM: 99%
SMILES: O=C(O)CNC(=O)c1c(O)c2cc3ccc(C(F)(F)F)cc3n2n(Cc2ccc(F)cc2)c1=O [Example 43, {[4-(4-Fluoro-benzyl)-1-hydroxy-3-oxo-6-trifluoromethyl-3,4-dihydro-4,4a-diaza-fluorene-2-carbonyl]-amino}-acetic acid]

inhibition at 200 µM: 100%
SMILES: O=C(O)CNC(=O)c1c(O)c2cccn2n(Cc2ccccc2Cl)c1=O [Example 7, {[1-(2-Chloro-benzyl)-4-hydroxy-2-oxo-1,2-dihydro-pyrrolo[1,2-b]pyridazine-3-carbonyl]-amino}-acetic acid]

inhibition at 50 µM: 98%
SMILES: C[C@H](NC(=O)c1c(O)c2cccn2n(Cc2ccc(C(F)(F)F)cc2)c1=O)C(=O)O [Example 24, 2-(S)-{[4-Hydroxy-2-oxo-1-(4-trifluoromethyl-benzyl)-1,2-dihydro-pyrrolo[1,2-b]pyridazine-3-carbonyl]-amino}-propionic acid]

inhibition at 125 µM: 98%
SMILES: O=C(O)CNC(=O)c1c(O)c2cccn2n(Cc2ccccc2C(F)(F)F)c1=O [Example 16, {[1-(2-Trifluoromethyl-benzyl)-4-hydroxy-2-oxo-1,2-dihydro-pyrrolo[1,2-b]pyridazine-3-carbonyl]-amino}-acetic acid]

inhibition at 67 µM: 98%
SMILES: O=C(O)CNC(=O)c1c(O)c2cc(Cl)cn2n(Cc2ccc(F)cc2)c1=O [Example 26, {[6-Chloro-4-hydroxy-2-oxo-1-(4-fluoro-benzyl)-1,2-dihydro-pyrrolo[1,2-b]pyridazine-3-carbonyl]-amino}-acetic acid]

inhibition at 200 µM: 100%
SMILES: O=C(O)CNC(=O)c1c(O)c2cccn2n(Cc2ccccc2)c1=O [Example 1, [(1-Benzyl-4-hydroxy-2-oxo-1,2-dihydro-pyrrolo[1,2-b]pyridazine-3-carbonyl)-amino]-acetic acid]

inhibition at 67 µM: 98%
SMILES: C[C@@H](NC(=O)c1c(O)c2cc(Cl)cn2n(Cc2ccc(-c3ccccc3)cc2)c1=O)C(=O)O [Example 36, 2-(R)-{[6-Chloro-1-(4-phenyl-benzyl)-4-hydroxy-2-oxo-1,2-dihydro-pyrrolo[1,2-b]pyridazine-3-carbonyl]-amino}-propionic acid]

inhibition at 50 µM: 98%
SMILES: C[C@H](NC(=O)c1c(O)c2cc(Cl)cn2n(Cc2ccc(C(F)(F)F)cc2)c1=O)C(=O)O [Example 23, 2-(S)-{[6-Chloro-4-hydroxy-2-oxo-1-(4-trifluoromethyl-benzyl)-1,2-dihydro-pyrrolo[1,2-b]pyridazine-3-carbonyl]-amino}-propionic acid]

inhibition at 50 µM: 95%
SMILES: O=C(O)CNC(=O)c1c(O)c2cc(Cl)c(Cl)n2n(Cc2ccc(F)cc2)c1=O [Example 42, {[6,7-Dichloro-1-(4-fluoro-benzyl)-4-hydroxy-2-oxo-1,2-dihydro-pyrrolo[1,2-b]pyridazine-3-carbonyl]-amino}-acetic acid]

inhibition at 125 µM: 94%
SMILES: O=C(O)CNC(=O)c1c(O)c2cccn2n(Cc2c(F)cccc2F)c1=O [Example 15, {[1-(2,6-Difluoro-benzyl)-4-hydroxy-2-oxo-1,2-dihydro-pyrrolo[1,2-b]pyridazine-3-carbonyl]-amino}-acetic acid]

inhibition at 125 µM: 97%
SMILES: O=C(O)CNC(=O)c1c(O)c2cccn2n(Cc2cccc(C(F)(F)F)c2)c1=O [Example 13, {[1-(3-Trifluoromethyl-benzyl)-4-hydroxy-2-oxo-1,2-dihydro-pyrrolo[1,2-b]pyridazine-3-carbonyl]-amino}-acetic acid]

inhibition at 200 µM: 100%
SMILES: O=C(O)CNC(=O)c1c(O)c2cccn2n(Cc2ccc(F)cc2F)c1=O [Example 6, {[1-(2,4-Difluoro-benzyl)-4-hydroxy-2-oxo-1,2-dihydro-pyrrolo[1,2-b]pyridazine-3-carbonyl]-amino}-acetic acid]

inhibition at 67 µM: 97%
SMILES: C[C@H](NC(=O)c1c(O)c2cc(Cl)cn2n(Cc2cccnc2)c1=O)C(=O)O [Example 39, 2-(S)-[(6-Chloro-4-hydroxy-2-oxo-1-pyridin-3-ylmethyl-1,2-dihydro-pyrrolo[1,2-b]pyridazine-3-carbonyl)-amino]-propionic acid]

inhibition at 50 µM: 97%
SMILES: CCCCn1c(=O)c(C(=O)NCC(=O)O)c(O)c2cccn21 [Example 17, [(1-Butyl-4-hydroxy-2-oxo-1,2-dihydro-pyrrolo[1,2-b]pyridazine-3-carbonyl)-amino]-acetic acid]

inhibition at 125 µM: 96%
SMILES: O=C(O)CNC(=O)c1c(O)c2cccn2n(Cc2ccccc2F)c1=O [Example 5, {[1-(2-Fluoro-benzyl)-4-hydroxy-2-oxo-1,2-dihydro-pyrrolo[1,2-b]pyridazine-3-carbonyl]-amino}-acetic acid]

inhibition at 67 µM: 100%
SMILES: COc1ccc(Cn2c(=O)c(C(=O)NCC(=O)O)c(O)c3cc(Cl)cn32)cc1 [Example 31, {[6-Chloro-1-(4-methoxy-benzyl)-4-hydroxy-2-oxo-1,2-dihydro-pyrrolo[1,2-b]pyridazine-3-carbonyl]-amino}-acetic acid]

inhibition at 67 µM: 100%
SMILES: O=C(O)CNC(=O)c1c(O)c2cc(Cl)cn2n(Cc2ccc(Cl)cc2)c1=O [Example 28, {[6-Chloro-1-(4-chloro-benzyl)-4-hydroxy-2-oxo-1,2-dihydro-pyrrolo[1,2-b]pyridazine-3-carbonyl]-amino}-acetic acid]

inhibition at 67 µM: 94%
SMILES: CC[C@H](NC(=O)c1c(O)c2cc(Cl)cn2n(Cc2ccc(Cl)cc2)c1=O)C(=O)O [Example 30, 2-(S)-{[6-Chloro-1-(4-chloro-benzyl)-4-hydroxy-2-oxo-1,2-dihydro-pyrrolo[1,2-b]pyridazine-3-carbonyl]-amino}-butyric acid]

inhibition at 50 µM: 99%
SMILES: C[C@H](NC(=O)c1c(O)c2cc3ccccc3n2n(Cc2ccc(F)cc2)c1=O)C(=O)O [Example 19, 2-(S)-{[4-(4-Fluoro-benzyl)-1-hydroxy-3-oxo-3,4-dihydro-4,4a-diaza-fluorene-2-carbonyl]-amino}-propionic acid]
